Assay results as given in patent US11285142B2, “Compositions and methods for identifying and treating dystonia disorders” (DUKE UNIVERSITY, priority 2015, dated 2022).

Legend:
ATF4 = assay: Western blot of ATF4 in EGFP-delta-E Torsin1a assay cell line; assay type: cell-based, human; conditions: EGFP-ΔE Torsin1a cells, dose dependent
Protocol: (§1) Cells were harvested in RIPA buffer [150 mM NaCl/50 mM NaH2PO4/2 mM EDTA/l % Triton X-100/0.5% SDS/0.5% deoxycholic acid/50 mM NaF/10 mM Na4P2O7/1 mM Na3VO4/1× phosphatase inhibitor cocktail (Sigma #P5726)/1× cOmplete Mini EDTA-free protease inhibitor cocktail (Roche #04693159001)]. Total protein concentrations were assessed by BCA assay (Thermo Fisher Scientific #23225). Proteins were resolved on 4-15% TGX gels (Bio-Rad #5671085), transferred to nitrocelulose membrane, blocked in TBS-T+5% non-fat dry milk, and probed as indicated. (Primary antibodies employed in the examples of the disclosure are presented in Table 4.) ATF4 expression was normalized to […] expression. N=3 independent control cells lines and 4 independent DYT1 cell lines, 3 replicates each.
(§2) Western blot analyses were conducted to determine the effect of Lopinavir on ATF4, CreP, pEIF2-alpha, and β-actin abundance in EGFP-ΔE Torsin1a expression assay cell lines. […] This down regulation of CreP is in keeping with the HIV protease inhibitor mediated CreP regulation. (See De Gassart et al. PNAS 2015.)

EIF2-alpha = assay: Western blot of phosphorylated eIF2-alpha in EGFP-delta-E Torsin1a assay cell line; assay type: cell-based, human; conditions: EGFP-ΔE Torsin1a cells, dose dependent
Protocol: as §1, §2

[1] = Cytotoxicity (cell count, cellular morphology) in the Torsin1a assay cell line; assay type: cell-based, human; conditions: human
Protocol: (§3) In order to test this model directly, the delta-E Torsin1a cell line was treated with compounds targeting the eIF2-alpha signaling pathway (FIG. 2). […] The following day, serial drug dilutions were prepared at 2× final concentration in assay media containing 10 μg/mL tetracycline and 30 μL of the drug/tetracycline mixture was added to the appropriate wells, while control wells received 30 μL of assay media alone or assay media+10 μg/mL tetracycline (final tetracycline concentration for all wells except negative controls: 5 μg/mL). Cells were then incubated at 37° C./5% CO^2 for 48 hours and fixed, permeabilized, Hoechst stained, and imaged as described above. The range of the Torsin1a localization effect was normalized to the percentage of cells with puncta in vehicle-treated delta-E cell line as the maximum and that in WT cell line as the minimum (FIG. 2, panels c-h). Cell count and EGFP-Torsin1a expression were normalized to their respective values in the vehicle-treated delta-E cell line as the maximum. All dose response data are the average of 4 independent experiments per dose. Untreated control data used for normalization are the average of 24 independent experiments.
(§4) Efficacy is calculated as the magnitude of the pathology correction relative to the mutant Torsin1a pathology. For example an efficacy=−100% would be equivalent to the WT TorsinA phenotype, and 0% would be equivalent to the Mutant TorsinA phenotype. CCv2 refers to the dose response Curve Class annotation, and AC refers to Active Concentration.

[2] = test system: Flp-In T-REx 293 cells expressing delta-E Torsin1a; assay: as above; assay type: cell-based, human
Protocol: as §3, §4

[3] = test system: delta-E Torsin1a localization in Flp-In T-REx 293 cells expressing EGFP-delta-E Torsin1a; assay: delta-E Torsin1a mis-localization assay (high-content imaging, % cells with EGFP puncta); assay type: cell-based, human
Protocol: To limit variation in expression levels associated with random integration or transient expression, single copies of either WT or delta-E human TOR1A cDNAs with N-terminal EGFP fusions were inserted at the FRT site in Flp-In™ T-Rex™ 293 cells (Thermo Fisher Scientific #R780-07) via flippase recombinase-mediated cassette exchange according to the manufacturer's recommended protocols.
The cells were maintained at 37° C./5% CO2. All experiments were performed on cells with fewer than 5 passages.
Torsin1a expression was also controlled by tetracycline induction to avoid selective pressure modifying the cellular phenotypes. […] The mutant phenotype was measured as the percentage of cells with one or more EGFP puncta using automated high-content imaging analysis (see infra).
The image analysis algorithm was developed using the Cellomics ArrayScan V CompartmentAnalysisV2 protocol. Hoechst's nuclear staining (Ch1: excitation 350 nm; emission 461 nm) was used for focusing and for cell identification by nuclear size, shape, and intensity. […] Detected cells were gated according to nuclear area, length-to-width ratio, and perimeter-to-area ratio. For the purpose of analysis, cell bodies were defined by a radius of 10 μm from the outer edge of the defined nucleus. Overlapping cells were automatically segmented according to the Cellomics ArrayScanV CompartmentAnalysisV2 object segmentation feature. EGFP fluorescence (Ch2: excitation 488 nm; emission 509 nm) was used for puncta detection. […] Torsin1a puncta were identified using the spot detection feature of the Compartmental AnalysisV2 protocol. The percentage of cells containing one or more puncta was used as the primary metric in this assay.
as §3

luciferase secretion = assay: C.Luc. Secretion Assay (luciferase secretion, secretory deficits); assay type: cell-based
Protocol: We tested each shRNA for its ability to rescue a previously described defect in luciferase secretion. Chen, P. et al. (2010) Hum. Mol. Genet. 19, 3502-15; Cao, S. et al. (2010) Dis. Model. Mech. 3, 386-96; Barrows, N. J., et al., (2010)J. Biomol. Screen. 15, 735-47.) DYT1 patient data were obtained from 4 independent patient-derived lines and WT data (black bar) from 3 normal healthy control lines. Each line was tested in 5 independent experiments that included 4 technical replicates each (with the exception of SCD data from 3 independent experiments).
(Cao, S. et al. (2010) Dis. Model. Mech. 3, 386-96.) Subsequent testing of additional HIV protease inhibitors supported the activity of this class of compounds and generated favorable structure-activity relationship (SAR) data from which to design improved compounds (Tables 5 and 6). The results with a subset of compounds were also observed in a Luciferase secretion assay (Tables 5 and 6).

CreP = assay: Western blot of CreP in EGFP-delta-E Torsin1a assay cell line; assay type: cell-based, human; conditions: EGFP-ΔE Torsin1a cells, increasing concentration
Protocol: as §1, §2

**Q.** For `Cc1cccc(C)c1OCC(=O)N[C@@H](Cc1ccccc1)[C@@H](O)C[C@H](Cc1ccccc1)NC(=O)[C@H](C(C)C)N1CCCNC1=O` [Lopinavir, lopinavir], which ATF4 abundance (ATF4) is on record?
**A.** The ATF4 abundance was “increases phosphorylation of EIF2-alpha and ATF4 abundance”.

**Q.** What about the “phosphorylation of EIF2-alpha” value (EIF2-alpha) of the same compound?
**A.** The value was “increases phosphorylation of EIF2-alpha”.

**Q.** What about the EC50 at 48 h ([1]; Flp-In T-REx 293 cells inducibly expressing delta-E Torsin1a, Table 5, read-out: ΔE TorsinA Mislocalization Assay Cytotoxicity EC50) of the same compound?
**A.** The EC50 at 48 h was 37.2 µM.

**Q.** And the AC50 ([1]; Table 6, read-out: Cytotox AC50)?
**A.** Its AC50 is 37.2 µM.

**Q.** What about the “Cytotox CC-v2 (dose response Curve Class)” value ([2]; Table 6) of the same compound?
**A.** The value was −3.

**Q.** And the “Cytotox Efficacy” value ([2]; Table 6)?
**A.** Its value is −69.87.

**Q.** And the “Cytotox Max Resp” value ([2]; Table 6)?
**A.** The value was −55.19.

**Q.** And the “toxicity (cell count, cellular morphology; in words)” value ([2]; at effective concentrations)?
**A.** Its value is “no cellular toxicity observed at effective doses”.

**Q.** And the EC50 ([3]; Homo sapiens, Flp-In-T-REx-293, Table 5, read-out: ΔE TorsinA Mislocalization Assay Localization EC50)?
**A.** Its EC50 is 4.69 µM.

**Q.** What about the Emax ([3]; Homo sapiens, Flp-In-T-REx-293, Table 5, read-out: ΔE TorsinA Mislocalization Assay Localization Max Efficacy) of the same compound?
**A.** The Emax was 70%.

**Q.** What about the AC50 ([3]; Homo sapiens, Flp-In-T-REx-293, Table 6, AC = Active Concentration, read-out: % pathology AC50) of the same compound?
**A.** Its AC50 is 4.69 µM.

**Q.** What about the “% pathology Max Resp” value ([3]; Table 6, normalized scale, WT-TorsinA line 0%, DYT1 mutant line 100% pathology) of the same compound?
**A.** The value was −89.03%.

**Q.** What about the “% pathology Efficacy” value ([3]; Table 6, normalized scale, −100% = WT TorsinA phenotype, 0% = Mutant TorsinA phenotype) of the same compound?
**A.** The value was −69.97%.

**Q.** And the “effect on delta-E Torsin1a localization (in words)” value ([3]; delta-E cell line, dose response)?
**A.** The value was “corrected TorsinA localization in a dose-dependent fashion”.

**Q.** And the EC50 (luciferase secretion; Table 5)?
**A.** Its EC50 is 0.98 µM.

**Q.** And the Emax (luciferase secretion; Table 5, read-out: C.Luc. Secretion Assay Secretion Max Efficacy)?
**A.** Its Emax is 177%.

**Q.** And the “correction of secretory deficits (in words)” value (luciferase secretion; orthogonal assays)?
**A.** Its value is “corrected secretory deficits”.

**Q.** And the “CreP abundance (steady state levels)” value (CreP)?
**A.** The value was “down-regulation of steady state levels”.

**Q.** And the “CreP abundance (steady state levels)” value (CreP; listed as lopinavir)?
**A.** Its value is “decreases CReP abundance”.
